# Entries after “also recorded” stand apart in the source; their conditions may differ.
# Experiment: Comment Code material properties: vapor pressure, ClogP, probability of ingredient color instability, odor detection threshold, melamine formaldehyde PMC headspace response ratio and leakage, liquid dish neat product liquid-air partition coefficient
# Assay type: physicochemical
# Conditions: Table 1 materials; each letter of the code is one property class (vapor pressure, ClogP, color instability, odor detection threshold, PMC headspace ratio, PMC leakage, liquid dish liquid-air partition coefficient)
row,SMILES,Comment Code
1,CC(=O)OC(C)CCC=C(C)CCC=C(C)C (centres unmarked) [Material 881],DEFHJK
2,C=CCCC(=O)c1ccccc1 [Material 792],BCEFHIK
3,CC(C)c1ccc(CCC=O)cc1 [Material 826],BDFHJK
4,C=CC(C)=CCC=C(C)CCC=C(C)C=O [Material 691],DHJK
5,CCCC(O)Cc1ccccc1 (centres unmarked) [Material 730],CEFHK
6,CC(OC(C)(C)COC(=O)C1CC1)C1CCCC(C)(C)C1 (centres unmarked) [Material 1032],DEFHJ
7,CCCCCCCCCCCC(=O)OCc1ccccc1 [Material 644],DEFHJ
8,CC(C)=CCCC1(C)C2CC3C(C2)C31C (centres unmarked) [Material 693],ADEFHJKL
9,C=CCc1ccc2c(c1)OCO2 [Material 1021],BCEFHK
10,CCCCCC1C(=O)CCC1CC(=O)OC (centres unmarked) [Material 1083],DFHJK
11,CC(C)=CCCC1=CCC(C)(C=O)CC1 (centres unmarked) [Material 988],DFHJK
12,C=C(C)C1CC=C(COC(C)=O)CC1 (centres unmarked) [Material 947],DFHJK
13,CCCCCCCCCCCCCCCCCC(=O)OCCCC [Material 594],DEFHJ
14,CCCC/C=C/C=C/C=O [Material 1064],ACHKL
15,CCCCCCCC=CC=O [Material 856],ADHKL
16,CC1=CCCC(C)=CCC(C)(C)C=CC1 [Material 706],DEFHJK
17,COc1ccc(CCC(C)=O)cc1 [Material 803],BCEFHJK
18,N#CC(=C1CCCCC1)c1ccccc1 [Material 945],DFHJK
19,CC1=CCCC2(C)CCC3CC12OC3(C)C (centres unmarked) [Material 726],BDEFHJK
20,CC(C)=CCCC(C)CCCC(C)C=O (centres unmarked) [Material 757],BDFHJK
21,CCCCCC(=Cc1ccccc1)CO [Material 721],DEFHJ
22,Cc1ccc(CC(C)C=O)cc1 (centres unmarked) [Material 742],ACHJK
23,C=CCCCCCCCCC(=O)OCCCC [Material 599],DEFHJK
24,CC(=O)C=CC12OC1(C)CCCC2(C)C (centres unmarked) [Material 636],BDEFHIJK
25,CCCCCC=C1CCCC1=O [Material 850],DFHJKL
26,C=C1CC[C@@H]2[C@H]([C@H]3[C@H]1CC[C@]3(C)O)C2(C)C [Material 1035],DEFHJK

# Results, then the molecule that gave them:
row,Comment Code,SMILES
1,DHJK,CC(=O)C1CC/C(C)=C\CC/C(C)=C\C/C=C/1C (centres unmarked) [Material 1095]
2,DHJK,CC(C)=C1CCC2=CC(=O)CC(C)C2(C)C1 (centres unmarked) [Material 684]
3,DEFHJK,C[C@@H]1CC[C@H]2C(C)(C)[C@H]3C[C@@]12CC[C@@]3(C)O [Material 569]
4,DEFGJK,O=C1CCCC=CCCCCCCCCCC1 [Material 788]
5,ACFHIJKL,CC1(C)C2CC=C(CC=O)C1C2 (centres unmarked) [Material 973]
6,BDEFHJKL,CCCCCCCC1CCCO1 (centres unmarked) [Material 852]
7,DHJ,CCCCCC1CC(=O)C=C(C)C1C(=O)OCC (centres unmarked) [Material 591]
8,DEFHJK,CC(C)C1OCCC2(CC3CCC2(C)C3(C)C)O1 (centres unmarked) [Material 659]
9,ACEFHIJKL,CCCCC(CC)C1OCCO1 (centres unmarked) [Material 1043]
10,CHJK,CC(=CCC1CC=C(C)C1(C)C)CO (centres unmarked) [Material 1025]
11,DEFHJK,CC1=CCC(C23CCCC(C)(C2)OC3)C1(C)C (centres unmarked) [Material 570]
12,DEFHJKL,C=C1CCC=C(C)CCC2C1CC2(C)C (centres unmarked) [Material 633]
13,BCEFHIK,Cc1cccc(CCO)c1 [Material 928]
14,DFHJK,O=C(Oc1ccccc1)c1ccccc1 [Material 965]
15,DEFHJK,CCCCCC(=O)Oc1ccc(C)cc1 [Material 939]
16,DEFHJK,CC1=CC2C(C(C)C)CCC(C)(O)C2CC1 (centres unmarked) [Material 716]
17,DHJ,O=C(OCCc1ccccc1)c1ccccc1 [Material 967]
18,ACEFGIJK,CC12CCC(C(=O)C1=O)C2(C)C (centres unmarked) [Material 587]
19,DEFHJK,C/C(=C/C#N)CCc1ccccc1 [Material 892]
20,DEFHJKL,CC1=CC2C(CC1)C(C)=CCC2C(C)C (centres unmarked) [Material 717]

# Same assay, conditions: cell strings several class symbols together; each letter is one property class of L1
row,SMILES,Comment Code
1,C1CC2C3CC(C2C1)C1(CCCO1)C3 (centres unmarked) [Material 1137],DEFGJKL
2,CCOC(=O)[C@@H]1[C@@H](C)CCCC1(C)C [Material 1058],ADEFHIJKL
3,CC(=O)C(C)=CC1C(C)=CCCC1(C)C (centres unmarked) [Material 703],BDHIJK
4,CC(C)=CCCC(C)CCOC(=O)Cc1ccccc1 (centres unmarked) [Material 510],DFHJ
5,CCCCCCOC(=O)CC [Material 264],ADEFHIKL
6,CCCCCC(=O)O [Material 583],ACEFGIKL
7,CC1(C)C2CCC3(C2)C1C1(CCC3(C)C)OCCO1 (centres unmarked) [Material 1144],DEFHJK
8,Cc1csc(C(C)C)n1 [Material 848],ACHIJKL
9,CC1=CCC(C(C)C)=CC1 [Material 319],ADEFGIJKL
10,O=C1CCCCCCC/C=C/CCCCCCC1 [Material 501],DEFGJ
11,CC12CCC(CC1=O)C2(C)C (centres unmarked) [Material 588],ACEFGIJKL
12,CCCCOC(=O)c1ccccc1C(=O)OCCCC [Material 455],DEFHJ
13,C=CC(C)=CC=CC(=C)C [Material 495],ADEFGIKL
14,CC(C)CCCCCCO [Material 205],BDEFGIKL
15,CC1CC(=O)CC(C)(C)C1 (centres unmarked) [Material 439],ACEFGIJKL
16,CCOC1CCC(C(C)(C)CC)CC1 (centres unmarked) [Material 12],ADEFHJK
17,C=C(C)[C@@H]1CC=C(C)C(=O)C1 [Material 169],ACGIJKL
18,CCCCCC1CCCC1=O (centres unmarked) [Material 469],BDFHIKL
19,C=CC(C)(CCC=C(C)C)OC=O (centres unmarked) [Material 150],ACFHJK
20,CCC/C=C\CO [Material 547],ACEFHIKL
21,CC1=CCCC2(C)CCC3CC12OC3(C)C (centres unmarked) [Material 726],BDEFHJK
22,C/C=C/c1ccc(O)c(OC)c1 [Material 1084],CEFHIK
23,C=Cc1ccc(O)cc1 [Material 789],BCHIK
24,C=C1CC[C@@H]2[C@H]([C@H]3[C@H]1CC[C@]3(C)O)C2(C)C [Material 1035],DEFHJK
25,COC(=O)C1(C)CCC(C)CC1 (centres unmarked) [Material 477],ADEFHIJKL
26,C=C(C=O)C(C)CCC=C(C)C (centres unmarked) [Material 819],ADFHIJK

# Next, values leading:
row,Comment Code,SMILES
1,DHJK,CC(C)=C1CCC2=CC(=O)CC(C)C2(C)C1 (centres unmarked) [Material 684]
2,BDFHIJKL,CCOC(=O)C(C)C1CCCCC1 (centres unmarked) [Material 412]
3,DEFHJK,C[C@@H]1CC[C@H]2C(C)(C)[C@H]3C[C@@]12CC[C@@]3(C)O [Material 569]
4,DEFGJK,O=C1CCCC=CCCCCCCCCCC1 [Material 788]
5,DFHJK,CC1=C2CC(C(C)(C)O)CCC2(C)CCC1 (centres unmarked) [Material 329]
6,DEFHJK; also recorded: BDEFHJK,CC1(C)C2=C(CO)CCC(C)(C)C23CCC1C3 (centres unmarked) [Material 248]
7,ACGIJKL,C=C(C)C1CC=C(C)C(=O)C1 (centres unmarked) [Material 902]
8,BCEFGIJKL,CC/C(CC(C)CC)=N/O (centres unmarked) [Material 1040]
9,DEFHJ,CCCCCCCC(=O)OC/C=C(\C)CCC=C(C)C [Material 308]
10,BDEFHJK,CC(C)C1OCCC2(CC3CCC2(C)C3(C)C)O1 (centres unmarked) [Material 659]
11,DEFHJK,CC1=CCC(C23CCCC(C)(C2)OC3)C1(C)C (centres unmarked) [Material 570]
12,DEFHJK,CCCCCCOC(=O)c1ccco1 [Material 275]
13,DHJK,CC(=O)C1=C(C)[C@@H]2C[C@@]3(C1)[C@H](C)CC[C@H]3C2(C)C [Material 1129]
14,ACFGIKL,CCC(=O)CC(C)CC (centres unmarked) [Material 784]
15,BCEFHIKL,Cc1ccc2ncccc2c1 [Material 777]
16,DFHJ,CC1COC(C)(c2ccc3c(c2)C(C)(C)CCC3(C)C)O1 (centres unmarked) [Material 2]
17,ACEFHK,O=COCCc1ccccc1 [Material 956]
18,BDHJK,CCc1ccccc1CC(C)(C)C=O [Material 354]
19,ACGIJKL,C=C(C)C1CCC(C)C(=O)C1 (centres unmarked) [Material 443]
20,BCHIJK,Cc1cc(O)cc(C)c1Cl [Material 557]
21,BCEFHJK,CCC(C)C(=O)N(C)c1ccccc1 (centres unmarked) [Material 314]
22,BCEFHJK,CCC(=O)OCCc1ccccc1 [Material 835]

# Same assay, conditions: letter codes A-L: vapor pressure, ClogP, probability of ingredient color instability, odor detection threshold, PMC headspace response ratio, PMC leakage, liquid dish liquid-air partition coefficient; Table 1 materials with at least one MORV from 1 to 5
row,SMILES,Comment Code
1,C1CC2C3CC(C2C1)C1(CCCO1)C3 (centres unmarked) [Material 1137],DEFGJKL
2,CC1(C)C2CCC3(C2)C1C1(CCC3(C)C)OCCO1 (centres unmarked) [Material 1144],DEFHJK
3,CC/C=C/CC/C=C\C#N [Material 1138],ACEFHKL
4,COC(=O)c1c(C)cc(O)c(C)c1O [Material 1117],CGIJ

# The next lines start with the values.
row,Comment Code,SMILES
1,BDFHJK,CC(C=O)=CCC1C(C)=CCCC1(C)C (centres unmarked) [Material 1116]
2,DHJK,CC(=O)C1=C(C)[C@@H]2C[C@@]3(C1)[C@H](C)CC[C@H]3C2(C)C [Material 1129]
3,DFHJ,COC(=O)c1ccccc1N=CC(C)Cc1ccc(C(C)(C)C)cc1 (centres unmarked) [Material 1121]

# Reference: patent publication US20160089464A1, “MALODOR REDUCTION COMPOSITIONS” (The Procter & Gamble Company, priority 2014, published 2016)
